Like-named read-outs stand apart in the source and are kept apart here.
Experiments:
[1] = Pharmacokinetic studies (oral and intravenous dosing) in jugular vein cannulated rats; details: for AUC(0-inf): AUC0-inf; for bioavailability: F0-inf (absolute oral bioavailability)
Procedure: Absolute oral bioavailability and other pharmacokinetic parameters were determined in a series of two-period, crossover studies, where the cannabinoids were administered intravenously in the first period, and orally in the second. Both jugular veins were cannulated (3 Fr polyurethane catheter, Instech Laboratories, Plymouth Meeting, USA). One catheter was used for intravenous dosing, and the second one was used for repetitive blood sampling in order to avoid sampling cannula contamination with highly concentrated intravenous drug solution. The anesthesia was performed using a rapid inhalational induction with isoflurane (IsoFlo, Zoetis, Czech Republic) followed by intramuscular injection of ketamine 100 mg/kg (Narkamon, Bioveta a.s., Czech Republic) and xylazine 5 mg/kg (Rometar, Bioveta a.s., Czech Republic). After a three-day recovery period, the rats were intravenously dosed with the particular cannabinoid (1 mg of CBD, 1.5 mg of the other three cannabinoids in the form of nanoemulsion, volume 100 μL). Systemic blood (100 μL) was drawn at 5, 15, and 30 min and at 1, 2, 4, 6, 8, 10, and 24 h(s) postdose. After a two-day wash-out period, the dosing via oral gavage followed (10 mg of CBD, 15 mg of the other three cannabinoids in the form of nanoemulsion, volume 1 mL). Systemic blood (100 μL) was drawn at 0 (predose), 0.5, 1, 2, 3, 4, 5, 6, 8, 10, and 24 h(s). Blood samples were centrifuged (4500 rpm for 10 min) and serum was extracted and stored in −80 °C until analysis. The laboratory was unaware of animal assignment to particular experimental groups (laboratory blinding).
Serum and lymph concentrations in all studies were dose-normalized to 1 mg/kg prior to further calculations. AUC values were determined using linear trapezoidal rule. Exact actual sampling times were used for this purpose. Scheduled sampling times were used for mean concentration plotting in the graphs. PK-solver add-on for MS Excel was used for all basic pharmacokinetic calculations. GraphPad Prism version 10.2.2 (GraphPad Software, San Diego, CA, USA) was used for all statistical analyses and graph plotting. Unpaired Student’s t test was used to compare pharmacokinetic and lymphatic transport parameters between the experimental groups. Level of significance was set to p < 0.05.
Lymphatic transport parameters were defined and calculated as previously described. , Briefly, absolute bioavailability via lymph (FAL) was defined as percentage of administered drug dose absorbed into the lymph. It was determined directly from lymph volume and drug concentration in lymph duct cannulated rats. Absolute bioavailability via portal vein (FAP) was analogically defined as percentage of administered drug dose reaching the systemic circulation after direct absorption into blood. It was calculated using equation 1 FAP=AUCent/AUCiv where AUCent is the area under the dose-normalized blood concentration–time curve after enteral dosing in lymph duct cannulated (i.e., lymph deprived) rats and AUCiv is the respective parameter in a separate intravenously dosed group. Total absolute bioavailability (F) in lymph duct cannulated rats was calculated as a sum of FAL and FAP. In normal animals with no lymph duct cannulation, F was calculated using standard formula for oral bioavailability: 2 F=AUCpo/AUCiv Relative bioavailability via lymph (FRL) was defined as the percentage of systemically available drug that was absorbed via lymph. It was calculated using the equation 3 FRL=FAL/F

[2] = type: physicochemical; details: final nanoemulsion
Procedure: To test pharmacokinetic parameters for various cannabinoids, the self-emulsifying drug delivery system (SEDDS) was selected due to its facile preparation and as it has shown an enhanced absorption profile for CBD.1 However, prior to administration the oil phase was mixed with water forming nanoemulsion to decrease viscosity and facilitate application to rats. […]
formulation is in the paper referred to as nanoemulsion.
In general, the nanoemulsion was prepared as follows. First, the oil phase containing Propylene glycol monocaprylate (PGMC), surfactant Kolliphor EL (CR-EL), co-surfactant and cannabinoid was prepared and thoroughly homogenized. As co-surfactants, we tested three compounds:
Diethylene glycol monoethyl ether (TRSC) or Ethyl alcohol (ETOH) or Propylene glycol (PRGL).
Next, four parts of water with respect to one part of oil (by weight) were added dropwise to the oil mixture at mild stirring. The stability of prepared nanoemulsions (initially without cannabinoids) was evaluated using dynamic light scattering (LS Instruments, Switzerland). […] and unstable samples, characterized by very high turbidity or phase separation, respectively, were not further analyzed. Optimization results are shown in the form of ternary diagrams for three tested co-surfactants (TRSC, ETOH, PRGL) in Fig. S1.
According to the manufacturer, CBD is most soluble in PGMC among other products.2 High solubility was also expected for other cannabinoids, thus PGMC was chosen as a suitable oil-phase base for nanoemulsion formulation in this study. Next, CR-EL was selected as a surfactant capable of forming nanoemulsions with PGMC in a wide range of concentrations (based on previous non-published experiments). To optimize the composition, stability and the size dependence of various emulsion mixtures were investigated for systems containing the aforementioned components and selected co-surfactants – TRSC, ETOH and PRGL (without cannabinoids). According to the […]
with desirable sizes (Fig. S1). Furthermore, TRSC is a proven skin permeation enhancer and solubilizer. Moreover, as shown by Franceschinis et al., TRSC acted as an excellent absorption […]
enhancer for 4,6,4′trimethylangelicin during oral administration. […]
co-surfactant and solubilizer for the final formulation tested in the pharmacokinetic study.
The final composition of nanoemulsion was chosen based on the compromise between the cannabinoids' loading capacity and the used surfactant amount. The final formulation contained 50wt.% of CR-EL, 30wt.% of TRSC and 20wt.% of PGMC. Long-term stability for the optimized formulation was tested for two cannabinoid concentrations – 15 mg/ml and 30 mg/ml. Results are shown in Tab. S1. The size was below 30 nm even after 30 days for all cannabinoids at 15mg/ml […]
Although all formulations were stable over time and to avoid any colloid instability and cannabinoid decomposition, the water phase was added to the oil phase directly before application in pharmacokinetic study.

[3] = rat, in vivo, po, nanoemulsion, rats, serum, dose-normalized to 1 mg/kg, mean ± SD
[4] = rat, in vivo, po, oil solution, rats, serum, dose-normalized to 1 mg/kg, mean ± SD
[5] = rat, in vivo, po, oil solution, rats, 10 mg CBD, 15 mg other cannabinoids, serum, dose-normalized to 1 mg/kg, mean ± SD
[6] = rat, in vivo, po, nanoemulsion, rats, mean ± SD
[7] = rat, in vivo, po, oil solution, rats, mean ± SD
[8] = rat, in vivo, po, T1/2, nanoemulsion, rats, mean ± SD
[9] = rat, in vivo, po, T1/2, oil solution, rats, mean ± SD
[10] = rat, in vivo, iv, 1.5 mg, nanoemulsion, rats, serum, dose-normalized to 1 mg/kg, mean ± SD
[11] = rat, in vivo, iv, 1.5 mg, T1/2, nanoemulsion, rats, mean ± SD
[12] = rat, in vivo, po, nanoemulsion, rats, 10 mg CBD, 15 mg others, serum, dose-normalized to 1 mg/kg, mean ± SD

Row | Structure (SMILES) | AUC(0-inf) [1, 3] [ng·h/mL] | AUC(0-inf) [1, 4] [ng·h/mL] | Cmax [1, 5] [ng/mL] | bioavailability [1, 6] [%] | bioavailability [1, 7] [%] | half-life [1, 8] [min] | half-life [1, 9] [min] | Tmax [1, 6] [h] | Tmax [1, 7] [h] | DLS, 90° size ([2]; cannabinoid 15 mg/ml, 1 day) [nm] | DLS, 90° size ([2]; cannabinoid 15 mg/ml, 30 days) [nm] | DLS, 90° size ([2]; cannabinoid 30 mg/ml, 1 day) [nm] | DLS, 90° size ([2]; cannabinoid 30 mg/ml, 30 days) [nm] | Vd ([1]; rat, in vivo, iv, 1.5 mg) [L/kg] | clearance ([1]; rat, in vivo, iv, 1.5 mg) [mL/min/kg] | AUC(0-inf) [1, 10] [ng·h/mL] | Cmax [1, 10] [ng/mL] | half-life [1, 11] [min] | Cmax [1, 12] [ng/mL] | also measured
1 | C=C(C)[C@@H]1CCC(C)=C[C@H]1c1c(O)cc(CCCCC)cc1O [CBD, cannabidiol] | 256 ± 38 | 205 ± 57 | 27 ± 10 | 45 ± 18 | 52 ± 19 | 264 ± 48 | 288 ± 48 | 3.2 ± 0.9 | 6.8 ± 1.9 | 26 | 26 | 200 | 222 | – | – | – | – | – | – | –
2 | CCCCCc1cc(O)c2c(c1)OC(C)(CCC=C(C)C)C=C2 (centres unmarked) [CBC, cannabichromene] | 117 ± 33 | 31 ± 23 | 2.6 ± 1.5 | 18 ± 5 | 34 ± 18 | 348 ± 114 | 780 ± 1140 | 3.6 ± 1.9 | 6 ± 1.3 | 25 | 25 | 40 | 34 | 11 ± 2.2 | 100 | 640 ± 85 | 935 ± 147 | 132 ± 24 | 12 ± 2 | –
3 | CCCCCc1cc(O)c(C/C=C(\C)CCC=C(C)C)c(O)c1 [CBG, cannabigerol] | – | – | – | – | – | – | – | – | – | 31 | 32 | – | – | 7.3 ± 2.3 | 98.3 | – | – | – | – | AUC(0-inf) ([1]; rat, in vivo, iv, 1.5 mg): 716 ± 136 ng·h/mL; Cmax ([1]; rat, in vivo, iv, 1.5 mg): 1190 ± 286 ng/mL; half-life ([1]; rat, in vivo, iv, 1.5 mg, T1/2): 150 ± 96 min; T1/2 ([1]; rat, in vivo, po): 5.1 ± 4.1 h; half-life ([1]; rat, in vivo, po, T1/2): 186 ± 78 min
4 | CCCCCc1cc(O)c2c(c1)OC(C)(C)c1ccc(C)cc1-2 [CBN, cannabinol] | 91 ± 19 | 148 ± 57 | 15.3 ± 4.6 | 9 | 20 ± 7 | 210 ± 66 | 252 ± 102 | 2.2 ± 0.6 | 6.5 ± 1.2 | 27 | 27 | 67 | 68 | 6.5 ± 1.6 | 50 | 1040 ± 212 | 1230 ± 252 | 300 | 12 ± 3 | T1/2 ([1]; nanoemulsion, IV, rats, 1.5 mg, mean ± SD): 5.3 ± 1.8 h; F0-inf (absolute oral bioavailability) ([1]; nanoemulsion, PO, rats, mean ± SD): 9.2 ± 2.6%

Reference: paper PMC12326358, “Effect of Quantitative Structural Properties and Drug Formulation in Four Cannabinoids (Cannabidiol, Cannabigerol, Cannabichromene, and Cannabinol) on Their Lymphatic Transport after Enteral Administration in Rats” (Molecular Pharmaceutics, 2025)
